Experimental data as given in patent US12630803B2, “Method of increasing proliferation of pancreatic beta cells, treatment method, and composition” (ICAHN SCHOOL OF MEDICINE AT MOUNT SINAI, priority 2018, dated 2026).
“Also recorded” adds a separate entry of the source. Ends that are not written are not given here.

What was measured:
human beta cells [1] = assay: Ki67-insulin immunolabeling of dispersed human islet cells (beta cell proliferation); details: for ability to replace or mimic GLP1 in harmine-GLP1 proliferation: agent administered together with harmine, FIGS. 5A-5C, 5E, 5F; for actual Ki67% values: DYRK1A inhibitor alone, dispersed human islets, 96 hours, FIG. 1F; for synergy of DYRK1A inhibitor with GLP1 on beta cell proliferation: in combination with GLP1, FIGS. 1F, 4; for proliferation, agent alone at low dose: harmine 1 μM alone or GLP1 alone, FIG. 3E; for synergy of GLP1R agonist with harmine on beta cell proliferation: in combination with harmine, FIG. 1G
Text: (§3) Human Islets: Human islets from 81 normal donors were obtained through the NIH-supported Integrated Islet Distribution Program (IIDP), the Alberta Diabetes Institute Islet Core at the University of Alberta, and the Clinical Islet Laboratory, University of Alberta Hospital. Islets were harvested from pancreata from deceased organ donors without any identifying information with informed consent and IRB approval at the islet-isolating centers. […] In addition, islets were obtained from 11 donors with Type 2 diabetes. […] Three were known to be on diabetes medications (metformin n=3, DPP4 inhibitor n=1). […] Whole islets were pelleted by centrifugation at 200×G and washed twice in PBS. Islets were then incubated in Accutase for 15-17 minutes at 37° C. and completely dispersed to single cells by pipette trituration. Single islet cells were pelleted by centrifugation at 700×G and re-suspended in islet culture medium.
(§4) Compound Treatments: Dispersed islets were plated on poly-D-lysine-laminin-coated glass chamber slides or coverslips. Cells derived from 20-30 IEQ dispersed cells were seeded per well, and allowed to recover for 24 hr prior to compound treatment. Cells were treated for 96 hours prior to Ki67 staining, BrdU staining or TUNEL labeling.
Antibodies were diluted in blocking buffer (5% normal goat serum (NGS), 1% bovine serum albumin (BSA), 0.5% Triton, in PBS). […] BrdU (Cell Proliferation Labelling Reagent. Amersham GE Healthcare. GE: RPN201) was added to each treatment at a 1:100 dilution, 18 hours prior to fixation. Antigen retrieval for BrdU immunostaining was performed following fixation using 1N HCl at 37° C. for 30 minutes before primary antibody incubation.

beta (INS+) cells = assay: BrdU labeling in beta (INS+) cells of dispersed human islets; assay type: cell-based
Text: (§1) Primary and secondary antisera used are listed below.

alpha (GCG+) cells = assay: BrdU labeling in alpha (GCG+) cells of dispersed human islets; assay type: cell-based
Text: as §1

delta (SST+) cells = assay: BrdU labeling in delta (SST+) cells of dispersed human islets; assay type: cell-based
Text: as §1

ductal (CK19+) cells = assay: BrdU labeling in ductal (CK19+) cells of dispersed human islets; assay type: cell-based
Text: as §1

human beta cells [2] = assay: TUNEL assay of beta cell death; assay type: cell-based; details: 96 hours, FIGS. 10C-10D
Text: as §1

[3] = test system: markers of beta cell differentiation; assay: qPCR of differentiation markers in islets from donors with T2D; assay type: cell-based, human; details: FIG. 9A
Text: Purity ranged from 55% to 85%.
(§2) Primers are shown below in Tables 5 and 6.

PDX1, MAFA, and NKX6.1 = details: normal donors, FIG. 8B
Method: Antibodies were diluted in blocking buffer (5% normal goat serum (NGS), 1% bovine serum albumin (BSA), 0.5% Triton, in PBS). Primary and secondary antisera used are listed below. BrdU (Cell Proliferation Labelling Reagent. Amersham GE Healthcare. GE: RPN201) was added to each treatment at a 1:100 dilution, 18 hours prior to fixation. Antigen retrieval for BrdU immunostaining was performed following fixation using 1N HCl at 37° C. for 30 minutes before primary antibody incubation. Cells were incubated with primary and secondary antibodies according to Table 4 below before counterstained with DAPI.

T2D beta cells = details: FIGS. 9D-9E
Text: as §3, §4
Antibodies were diluted in blocking buffer (5% normal goat serum (NGS), 1% bovine serum albumin (BSA), 0.5% Triton, in PBS). […]

cell cycle molecules = assay: qPCR of cell cycle activators and inhibitors in human islets; assay type: cell-based; details: GLP1 added to harmine, vs harmine alone, 72 hours
Text: as §2

[4] = GLP1 added to harmine, vs harmine alone

With `CCCC(=O)Nc1ncnc2c1ncn2[C@@H]1O[C@@H]2COP(=O)(O)O[C@H]2[C@H]1OC(=O)CCC` [di-butyryl cAMP, dibutyryl cAMP] the “ability to replace or mimic GLP1 in harmine-GLP1 proliferation” value (from here on “ability to replace or mimic GLP1”) (human beta cells [1]) was “can replace GLP1”, the “ability to replace or mimic GLP1” value (human beta cells [1]; listed as dibutyryl-cyclicAMP) was “mimicked” and the “effect on human beta cell proliferation, agent administered alone” value (from here on “effect on human beta cell proliferation”) (human beta cells [1]) was “no effect on proliferation”.
With `Nc1ncnc2c1c(I)cn2[C@@H]1O[C@H](CO)[C@@H](O)[C@H]1O` [5-IT, 5-iodotubercidin] the “actual Ki67% values” (human beta cells [1]) was 2.6% and the “synergy of DYRK1A inhibitor with GLP1 on beta cell proliferation” value (from here on “synergy of DYRK1A inhibitor with GLP1”) (human beta cells [1]) was “synergistic”.
For `O=C1NC(Nc2ccccc2)=N/C1=C\c1ccc2c(c1)OCO2` [leucettine], the “actual Ki67% values” (human beta cells [1]) was 2.8% and the “synergy of DYRK1A inhibitor with GLP1” value (human beta cells [1]) was “synergistic”.
With `CC(C)Oc1ccc(F)c(-c2cnc(N)c(C(=O)Nc3cnccc3N3CCC[C@@H](C(=O)O)C3)n2)c1` [GNF4877] the “actual Ki67% values” (human beta cells [1]) was 2.9% and the “synergy of DYRK1A inhibitor with GLP1” value (human beta cells [1]) was “synergistic”.
`COc1ccc2c(c1)[nH]c1c(C)nccc12` [harmine] was tested, and the “proliferation (BrdU) in beta cells” value (beta (INS+) cells; harmine alone) was “activates proliferation”, the “proliferation (BrdU) in alpha cells” value (alpha (GCG+) cells; harmine alone) was “activates proliferation” and the “proliferation (BrdU) in delta cells” value (delta (SST+) cells; harmine alone) was “activates proliferation”. The “proliferation (BrdU) in ductal cells” value (ductal (CK19+) cells; harmine alone) was “activates proliferation”, the “markers of beta cell death (TUNEL)” value (human beta cells [2]) was “Neither harmine nor the harmine-GLP1 combination treatment induced markers of beta cell death” and the “expression of differentiation markers (qPCR)” value [3] was “did not have adverse effects on differentiation”. For the same compound, the “expression of differentiation markers (qPCR)” value ([3]; listed as Harmine) was “increased the expression of PDX1, MAFB, NKX6.1, GLUT2, GLP1R, and PCSK1”, the “PDX1, MAFA and NKX6.1 proteins in beta cells” value (PDX1, MAFA, and NKX6.1) was “increases in beta cell nuclei” and the “beta cell proliferation (Ki67 immunolabeling)” value (T2D beta cells) was “activated beta cell proliferation in T2D beta cells”. For the same compound, the “actual Ki67% values” (human beta cells [1]) was 2.1%, the “proliferation, agent alone at low dose” value (human beta cells [1]) was “little or no proliferation” and the “human beta cell proliferation (Ki67 in insulin-positive cells)” value (human beta cells [1]; harmine alone) was roughly 2%. For the same compound, the “actual Ki67% value” (human beta cells [1]; harmine alone, experiments of FIG. 1G) was 2.2%.
In the case of lixisenatide: GLP1R agonist, the “synergy of GLP1R agonist with harmine on beta cell proliferation” value (“synergy of GLP1R agonist with harmine” below) (human beta cells [1]) is reported as “synergy was also apparent”.
For `CCN1/C(=C/C(C)=O)Sc2ccc(O)cc21` [INDY], the “actual Ki67% values” (human beta cells [1]) was 1.7% and the “synergy of DYRK1A inhibitor with GLP1” value (human beta cells [1]) was “synergistic”.
`CC(C)Cn1c(=O)n(C)c(=O)c2[nH]cnc21` [IBMX, 3-Isobutyl-1-methylxanthine] was tested, and the “ability to replace or mimic GLP1” value (human beta cells [1]) was “mimicked; also recorded: can replace GLP1” and the “effect on human beta cell proliferation” value (human beta cells [1]) was “no effect on proliferation”.
With `OCCN(CCO)c1nc(N2CCCCC2)c2nc(N(CCO)CCO)nc(N3CCCCC3)c2n1` [dipyridamole] the “ability to replace or mimic GLP1” value (human beta cells [1]) was “mimicked; also recorded: can replace GLP1” and the “effect on human beta cell proliferation” value (human beta cells [1]) was “no effect on proliferation”.
`O=S(=O)(NCCNC/C=C/c1ccc(Br)cc1)c1cccc2cnccc12` [H89] was tested, and the “effect on human beta cell proliferation” value (human beta cells [1]) was “no effect on its own”.
With “GLP1(7-36)amide (HAEGTFTSDVSSYLEGQAAKEFIAWLVKGR-NH2; UniProt P01275 98-127, looked up)” the “proliferation (BrdU) in beta cells” value (beta (INS+) cells; [4]) was “further increased proliferation; also recorded: accentuates”, the “proliferation (BrdU) in alpha cells” value (alpha (GCG+) cells; [4]) was “no additional effect” and the “proliferation (BrdU) in delta cells” value (delta (SST+) cells; [4]) was “no additional effect”. For the same compound, the “proliferation (BrdU) in ductal cells” value (ductal (CK19+) cells; [4]) was “further increased proliferation; also recorded: accentuates”, the “change to cell cycle activators or inhibitors (qPCR)” value (cell cycle molecules) was “no incremental change to cell cycle activators or inhibitors” and the “effect on human beta cell proliferation” value (human beta cells [1]) was “negligible effects”. The “proliferation, agent alone at low dose” value (human beta cells [1]) was “little or no proliferation” and the “synergy of GLP1R agonist with harmine” value (human beta cells [1]) was “synergy was also apparent”.
With “exendin-4: GLP1R agonist (11940, Cayman)” the “synergy of GLP1R agonist with harmine” value (human beta cells [1]) was “synergy was also apparent”.
